{"source": "paper PMC4598324", "about": "“Crystal structures of Bbp from Staphylococcus aureus reveal the ligand binding mechanism with Fibrinogen α” (Protein & Cell, 2015)", "key": {"[1]": {"biological_target": "Bone sialoprotein-binding protein (Bbp) residues 273-598 (N2 and N3 domains) (S. aureus) (UniProt Q14U76)", "assay": "ITC; 500 μmol/L peptide in the syringe titrated into 50 μmol/L Bbp^273−598 in the cell; 25°C; 200 mmol/L NaCl, 20 mmol/L HEPES pH 7.5; Microcal iTC200"}, "Bbp^T582A": {"biological_target": "T1, Bbp^T582A (Staphylococcus aureus, UniProt Q14U76, T582A)", "T1 construct": "The fragment of the Bbp gene (corresponding to 273–598 aa) was amplified; GST (pGEX-6p-1) (N); made in house; host or cells: Escherichia coli BL21", "T1 sequence (Q14U76 273-598 T582A)": "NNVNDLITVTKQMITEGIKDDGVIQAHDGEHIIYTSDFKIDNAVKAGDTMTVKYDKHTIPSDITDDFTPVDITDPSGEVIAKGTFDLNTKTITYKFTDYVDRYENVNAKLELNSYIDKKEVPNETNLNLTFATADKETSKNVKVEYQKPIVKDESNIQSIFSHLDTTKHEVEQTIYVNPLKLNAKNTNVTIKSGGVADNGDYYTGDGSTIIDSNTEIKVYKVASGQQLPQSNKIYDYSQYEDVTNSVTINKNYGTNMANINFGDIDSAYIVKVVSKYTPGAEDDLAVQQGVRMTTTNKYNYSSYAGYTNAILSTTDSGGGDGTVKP", "assay": "Surface plasmon resonance (SPR), immobilized mutant T582A", "settings": "BIAcore T200, T582A mutant immobilized on CM5 chip (3375RU), peptide 62.5 to 0.976 μmol/L in 200 mmol/L NaCl, 20 mmol/L HEPES (pH 7.5), 30 μL/min, binding 60 s, dissociation 120 s", "excerpt": "(§1) Figure 5 SPR analyses of the interactions between Bbp ^273−598 WT and mutants (T582A and L584A) and the Fg α ^561−575 (A–C), respectively. The proteins were immobilized on a BIA-core sensor chip.\n(§2) The fragment of the Bbp gene (corresponding to 273–598 aa) was amplified using S. aureus ATCC 25923 genomic DNA by PCR. The gene fragments of mutated proteins Bbp^T582A and Bbp^L584A followed the same protocol. After digestion with BamHI and XhoI (NEB), the amplified fragments were cloned into the prokaryotic expression vector pGEX-6p-1 (GE Healthcare Life Sciences) to produce the GST-Bbp fusion protein and were confirmed by DNA sequencing. The recombinant protein was expressed in Escherichia coli strain BL21 with a high yield.\n(§3) The peptide corresponding to the fibrinogen α^561−575 was synthesized as previously described (Vazquez et al., [2011]).\n(§4) The interaction affinities between Fg α^561−575 and Bbp^273−598 protein were conducted by surface plasmon resonance (SPR) using BIAcore T200 instrument (GE Healthcare). The wild type Bbp^273−598 protein and two mutants were immobilized, respectively, on a CM5 sensor chip in 10 mmol/L sodium acetate, pH 4.5. The immobilization level was 3375RU. The synthetic peptide in 200 mmol/L NaCl and 20 mmol/L HEPES (pH 7.5) was injected on the protein-coated surface at various concentrations at 30 μL/min. The binding and dissociation was 60 s and 120 s, respectively."}, "Bbp^L584A": {"biological_target": "T2, Bbp^L584A (Staphylococcus aureus, UniProt Q14U76, L584A)", "T2 construct": "The fragment of the Bbp gene (corresponding to 273–598 aa) was amplified; GST (pGEX-6p-1) (N); made in house; host or cells: Escherichia coli BL21", "T2 sequence (Q14U76 273-598 L584A)": "T1 sequence (Q14U76 273-598 T582A) with A310T, L312A", "assay": "Surface plasmon resonance (SPR), immobilized mutant L584A", "settings": "BIAcore T200, L584A mutant immobilized on CM5 chip (3375RU), peptide 62.5 to 0.976 μmol/L in 200 mmol/L NaCl, 20 mmol/L HEPES (pH 7.5), 30 μL/min, binding 60 s, dissociation 120 s", "excerpt": "as §1, §2, §3, §4"}, "Bbp^273−598": {"biological_target": "T3, Bbp^273−598 (Staphylococcus aureus, UniProt Q14U76)", "T3 construct": "covering residues Asn^273–Pro^598 of Bbp from S. aureus; GST (cleaved; GPLGS remains at the N-terminus) (N, cleaved yes); made in house; host or cells: Escherichia coli BL21", "T3 sequence (Q14U76 273-598)": "T1 sequence (Q14U76 273-598 T582A) with A310T", "assay": "Isothermal titration calorimetry (ITC), Fg α^561−575 titrated into Bbp^273−598", "type": "binding", "settings": "25°C, Microcal iTC200, cell 50 μmol/L Bbp^273−598, syringe 500 μmol/L peptide, 200 mmol/L NaCl, 20 mmol/L HEPES pH 7.5, first peak not used for analysis", "excerpt": "as §2\nThe recombinant protein was firstly purified by GST-affinity column and digested with PreScission protease overnight. The eluant was collected and concentrated for further purification using gel filtration chromatography (Superdex-200 column, GE Healthcare) in buffer containing 20 mmol/L HEPES pH 7.5, 200 mmol/L NaCl, 2 mmol/L DTT on the FPLC system (GE Healthcare Life Sciences). The proteins in every step of purification were analyzed by SDS-PAGE.\nas §3\nITC experiments were carried out at 25°C using a Microcal iTC200 instrument (GE Healthcare). […] The data were fitted and analyzed using the Origin 7 software package (Microcal)."}, "[2]": {"biological_target": "T4, Bone sialoprotein-binding protein (Bbp) residues 273-598 (N2 and N3 domains) (S. aureus, UniProt Q14U76 273-598)", "T4 chain": "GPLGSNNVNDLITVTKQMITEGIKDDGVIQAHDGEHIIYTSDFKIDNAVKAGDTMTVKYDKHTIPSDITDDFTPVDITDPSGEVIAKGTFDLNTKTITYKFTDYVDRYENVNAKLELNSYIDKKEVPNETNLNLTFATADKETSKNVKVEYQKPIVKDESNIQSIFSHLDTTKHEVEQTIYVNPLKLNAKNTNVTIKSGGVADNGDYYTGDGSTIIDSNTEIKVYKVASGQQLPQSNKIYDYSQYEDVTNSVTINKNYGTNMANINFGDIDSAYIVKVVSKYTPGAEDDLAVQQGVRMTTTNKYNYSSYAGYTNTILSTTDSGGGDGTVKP", "assay": "SPR"}}, "note": "Where a chain is given by its changes, count along the chain named. Where no end group is shown, it is not given here."}
{"molecule": "Fibrinogen α chain peptide, residues 561-575", "values": [{"measurement": "Kd", "setting": "[1]", "value": 290, "unit": "nM"}]}
{"molecule": "SKQFTSSTSYNRGDS [Fg α^561−575]", "values": [{"measurement": "Kd", "setting": "Bbp^T582A", "value": 537, "unit": "nM"}, {"measurement": "Kd", "setting": "Bbp^L584A", "value": 456, "unit": "nM"}, {"measurement": "Kd", "setting": "Bbp^273−598", "value": 290, "unit": "nM"}]}
{"molecule": "SKQFTSSTSYNRGDS", "note": "[Fibrinogen α chain peptide, residues 561-575]", "values": [{"measurement": "Kd", "setting": "[2]", "value": 1620, "unit": "nM"}]}
